Data from patent US20200187499A1, “SUBSTITUTED BENZYL-4-AMINOPICOLINIC ESTERS AND PYRIMIDINO-4-CARBOXYLIC ESTERS, METHODS FOR THE PRODUCTION THEREOF, AND USE THEREOF AS HERBICIDES AND PLANT GROWTH REGULATORS” (Bayer CropScience Aktiengesellschaft, priority 2017, published 2020).

How the values were obtained:
Assay type in all cases: in vivo
AMARE [1] = experiment: Pre-emergence herbicidal action; settings: 320 g/ha, scored after 3 weeks
How it was run: (§1)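 Visual herbicidal activity in percent (100% = dead, 0% = as untreated control), scored 3 weeks after treatment. Seeds were sown in sandy loam and covered, then the soil surface was sprayed pre-emergence with wettable-powder or emulsion-concentrate formulations in 600 to 800 l/ha water containing 0.2% wetting agent.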

ECHCG [2] = experiment: Pre-emergence herbicidal action; settings: 320 g/ha, scored after 3 weeks
How it was run: as §1

SETVI [3] = experiment: Pre-emergence herbicidal action; settings: 320 g/ha, scored after 3 weeks
How it was run: as §1

ABUTH [4] = experiment: Pre-emergence herbicidal action; settings: 320 g/ha, scored after 3 weeks
How it was run: as §1

ALOMY = experiment: Pre-emergence herbicidal action; settings: 320 g/ha, scored after 3 weeks
How it was run: as §1

POLCO [5] = experiment: Pre-emergence herbicidal action; settings: Table 2, pre-emergence (PE), 320 g/ha, scored after 3 weeks
How it was run: as §1

VIOTR [6] = experiment: Pre-emergence herbicidal action; settings: Table 2, pre-emergence (PE), 320 g/ha, scored after 3 weeks
How it was run: as §1

STEME = experiment: Post-emergence herbicidal action; settings: 320 g/ha, assessed after about 3 weeks
How it was run: (§2)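 Greenhouse post-emergence spray, one-leaf stage (2–3 wk after sowing, sandy loam). WP/EC formulation, aqueous, 600–800 l/ha, + 0.2% wetting agent. Visual rating ~3 wk, % vs untreated (100 = dead).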

AMARE [7] = experiment: Post-emergence herbicidal action; settings: 320 g/ha, assessed after about 3 weeks
How it was run: as §2

SETVI [8] = experiment: Post-emergence herbicidal action; settings: 320 g/ha, assessed after about 3 weeks
How it was run: as §2

ABUTH [9] = experiment: Post-emergence herbicidal action; settings: 320 g/ha, assessed after about 3 weeks
How it was run: as §2

PHBPU = experiment: Post-emergence herbicidal action; settings: Table 5, post-emergence (PO), 320 g/ha, assessed after about 3 weeks
How it was run: as §2

ECHCG [10] = experiment: Post-emergence herbicidal action; settings: Table 5, post-emergence (PO), 320 g/ha, assessed after about 3 weeks
How it was run: as §2

POLCO [11] = experiment: Post-emergence herbicidal action; settings: Table 5, post-emergence (PO), 320 g/ha, assessed after about 3 weeks
How it was run: as §2

VIOTR [12] = experiment: Post-emergence herbicidal action; settings: Table 5, post-emergence (PO), 320 g/ha, assessed after about 3 weeks
How it was run: as §2

Row | Compound | Herbicidal action against AMARE (AMARE [1]; Table 2, pre-emergence (PE)) | Herbicidal action against ECHCG (ECHCG [2]; Table 2, pre-emergence (PE)) | Herbicidal action against SETVI (SETVI [3]; Table 2, pre-emergence (PE)) | Herbicidal action against ABUTH (ABUTH [4]; Table 2, pre-emergence (PE)) | Herbicidal action against ALOMY (ALOMY; Table 2, pre-emergence (PE)) | Herbicidal action against POLCO (POLCO [5]) | Herbicidal action against VIOTR (VIOTR [6]) | Herbicidal action against AMARE (AMARE [1]; Table 3, pre-emergence (PE)) | Herbicidal action against ECHCG (ECHCG [2]; Table 3, pre-emergence (PE)) | Herbicidal action against SETVI (SETVI [3]; Table 3, pre-emergence (PE)) | Herbicidal action against ABUTH (ABUTH [4]; Table 3, pre-emergence (PE)) | Herbicidal action against ALOMY (ALOMY; Table 3, pre-emergence (PE)) | Herbicidal action against PHBPU (PHBPU) | Herbicidal action against STEME (STEME; Table 5, post-emergence (PO)) | Herbicidal action against AMARE (AMARE [7]; Table 5, post-emergence (PO)) | Herbicidal action against ECHCG (ECHCG [10]) | Herbicidal action against SETVI (SETVI [8]; Table 5, post-emergence (PO)) | Herbicidal action against ABUTH (ABUTH [9]; Table 5, post-emergence (PO)) | Herbicidal action against POLCO (POLCO [11]) | Herbicidal action against VIOTR (VIOTR [12]) | also measured
1 | Nc1cc(-c2ccc3occc3c2)nc(C(=O)OCc2cc(F)c(F)cc2F)c1Cl [Example I-06] | 100% | 100% | 90% | 20% | 80% | 100% | 60% | – | – | – | – | – | – | – | – | – | – | – | – | – | Herbicidal action against STEME (STEME; Table 6, post-emergence (PO)): 100%; Herbicidal action against AMARE (AMARE [7]; Table 6, post-emergence (PO)): 100%; Herbicidal action against SETVI (SETVI [8]; Table 6, post-emergence (PO)): 90%; Herbicidal action against ABUTH (ABUTH [9]; Table 6, post-emergence (PO)): 100%
2 | COc1c(F)ccc(COC(=O)c2nc(-c3ccc4ccsc4c3)cc(N)c2Cl)c1F [Example I-08] | 100% | 100% | 90% | 0% | 60% | 100% | 20% | – | – | – | – | – | – | – | – | – | – | – | – | – | Herbicidal action against STEME (STEME; Table 6, post-emergence (PO)): 100%; Herbicidal action against AMARE (AMARE [7]; Table 6, post-emergence (PO)): 100%; Herbicidal action against SETVI (SETVI [8]; Table 6, post-emergence (PO)): 70%; Herbicidal action against ABUTH (ABUTH [9]; Table 6, post-emergence (PO)): 100%
3 | Nc1cc(-c2ccc3ccsc3c2)nc(C(=O)OCc2ccc(F)cc2F)c1Cl [Example I-12] | 100% | 100% | 90% | 20% | 70% | 100% | 20% | – | – | – | – | – | – | – | – | – | – | – | – | – | Herbicidal action against STEME (STEME; Table 6, post-emergence (PO)): 100%; Herbicidal action against AMARE (AMARE [7]; Table 6, post-emergence (PO)): 100%; Herbicidal action against SETVI (SETVI [8]; Table 6, post-emergence (PO)): 100%; Herbicidal action against ABUTH (ABUTH [9]; Table 6, post-emergence (PO)): 90%
4 | Nc1cc(-c2ccc3ccsc3c2)nc(C(=O)OCc2ccc(Cl)cc2)c1Cl [Example I-14] | – | – | – | – | – | – | – | 100% | 100% | 80% | 50% | 30% | 80% | 100% | 100% | 90% | 90% | 100% | 100% | 70% | –
5 | Nc1cc(-c2ccc3sccc3c2)nc(C(=O)OCc2ccc(Cl)cc2)c1Cl [Example I-19] | – | – | – | – | – | – | – | 100% | 50% | 50% | 70% | 60% | 100% | 100% | 100% | 100% | 80% | 90% | 0% | 80% | –
6 | Nc1cc(-c2ccc3occc3c2)nc(C(=O)OCc2c(F)cc(F)cc2F)c1Cl [Example I-20] | 100% | 100% | 100% | 50% | 70% | 100% | 40% | – | – | – | – | – | – | – | – | – | – | – | – | – | Herbicidal action against STEME (STEME; Table 6, post-emergence (PO)): 100%; Herbicidal action against AMARE (AMARE [7]; Table 6, post-emergence (PO)): 100%; Herbicidal action against SETVI (SETVI [8]; Table 6, post-emergence (PO)): 100%; Herbicidal action against ABUTH (ABUTH [9]; Table 6, post-emergence (PO)): 100%
7 | Nc1c(Cl)c(C(=O)OCc2cccc(C(F)(F)F)c2)nc(Cl)c1-c1ccc2sccc2c1 [Example I-21, 3-(trifluoromethyl)benzyl 4-amino-6-chloro-(1-benzothiophen-5-yl)-3-chloropyridine-2-carboxylate] | – | – | – | – | – | – | – | 60% | 100% | 80% | 50% | 40% | 80% | 90% | 100% | 90% | 90% | 90% | 40% | 80% | –
8 | COc1c(F)ccc(COC(=O)c2nc(-c3ccc4sccc4c3)cc(N)c2Cl)c1F [Example I-22] | – | – | – | – | – | – | – | 100% | 90% | 90% | 20% | 50% | 80% | 100% | 100% | 90% | 100% | 100% | 90% | 80% | –
9 | Nc1c(F)c(-c2ccc3sccc3c2)nc(C(=O)OCc2ccc(F)cc2)c1Cl [Example I-29] | – | – | – | – | – | – | – | 100% | 80% | 70% | 70% | 80% | 40% | 80% | 100% | 90% | 80% | 80% | 90% | 50% | –
10 | Nc1cc(-c2ccc3ncsc3c2)nc(C(=O)OCc2cccc(F)c2)c1Cl [Example I-41] | – | – | – | – | – | – | – | – | – | – | – | – | 70% | 100% | 90% | 100% | 100% | 100% | 0% | 90% | Herbicidal action against AMARE (AMARE [1]; Table 4, pre-emergence (PE)): 50%; Herbicidal action against ECHCG (ECHCG [2]; Table 4, pre-emergence (PE)): 90%
11 | Nc1c(F)c(-c2ccc3ccsc3c2)nc(C(=O)OCc2ccc(F)cc2)c1Cl [Example I-53] | – | – | – | – | – | – | – | – | – | – | – | – | 0% | 100% | 100% | 90% | 90% | 80% | 80% | 10% | Herbicidal action against AMARE (AMARE [1]; Table 4, pre-emergence (PE)): 100%; Herbicidal action against ECHCG (ECHCG [2]; Table 4, pre-emergence (PE)): 70%
12 | Nc1c(F)c(-c2ccc3ccsc3c2)nc(C(=O)OCc2c(F)cc(F)cc2F)c1Cl [Example I-55] | – | – | – | – | – | – | – | – | – | – | – | – | 0% | 90% | 100% | 90% | 90% | 60% | 90% | 10% | Herbicidal action against AMARE (AMARE [1]; Table 4, pre-emergence (PE)): 100%; Herbicidal action against ECHCG (ECHCG [2]; Table 4, pre-emergence (PE)): 40%
